Laboratory results from ChEMBL document CHEMBL1201862, “PubChem BioAssay data set” (2004).
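A five-concentration, 48-hour dose response in 96-well plates underlies each endpoint, interpolated linearly between surrounding concentrations. The concentration for 50% growth inhibition is given as GI50.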 The source made the active and inactive calls. Rule as the data show it: active = GI50 up to about 1.1 µM and inactive = higher.

Columns and labels:
Assay in all cases: NCI tumour cell line growth inhibition, 48 h
LXFL 529 = tested on: LXFL 529
Hs-578T = tested on: Hs-578T
PC-3 = tested on: PC-3
DU-145 = tested on: DU-145
T47D = tested on: T47D
MDA-N = tested on: MDA-N
MDA-MB-231 = tested on: MDA-MB-231
786-0 = tested on: 786-0
RXF 631 = tested on: RXF 631

Measured: GI50

CC1(C)Cc2c(C#N)c(N)c3c(c2CO1)C(=O)OC3=O
inactive: LXFL 529 > 100 µM

O=c1[nH]c(=O)n(CCOCP(=O)(O)O)nc1Br
inactive: Hs-578T > 100 µM | PC-3 > 100 µM | DU-145 > 100 µM | T47D > 100 µM | MDA-N > 100 µM | MDA-MB-231 > 100 µM

Cc1c(N2C(=O)/C(=C/C=C/c3ccccc3)N=C2c2ccccc2)c(=O)n(-c2ccccc2)n1C
inactive: PC-3 25.6 µM | DU-145 40.8 µM | T47D 30.8 µM | MDA-N 17.8 µM | MDA-MB-231 22.1 µM | 786-0 29.3 µM

CCOC(=O)c1sc2nc(SC)nc(Nc3ccc4c(c3)OCCO4)c2c1N
inactive: PC-3 13.2 µM | DU-145 14.1 µM | T47D 6.34 µM | MDA-N 10.4 µM | MDA-MB-231 11.1 µM

COc1ccc(Oc2ccccc2N)cc1
inactive: RXF 631 > 100 µM | LXFL 529 10.4 µM

COc1ccc(-c2cc(-c3ccccc3)n(C3OCC(OC(C)=O)C(OC(C)=O)C3OC(C)=O)c(=S)c2C#N)cc1 (stereo not drawn)
inactive: Hs-578T 15.3 µM | PC-3 > 100 µM | DU-145 > 100 µM | T47D 78.7 µM | MDA-N 54.5 µM | MDA-MB-231 > 100 µM

CCC(=C(C#N)C#N)c1cc(OC)c(OC)c(OC)c1
inactive: LXFL 529 > 100 µM

O=C(Nc1ccc([N+](=O)[O-])cc1)Nn1cnnc1
inactive: Hs-578T 26.1 µM | PC-3 42.1 µM | DU-145 64 µM | T47D 24 µM | MDA-N 34 µM | MDA-MB-231 > 10 µM
